Assay results: paper PMC5702336, “Critical Role of Hepatic Cyp450s in the Testis-Specific Toxicity of (5R)-5-Hydroxytriptolide in C57BL/6 Mice” (Frontiers in Pharmacology, 2017)
Entries after “also recorded” stand apart in the source; their conditions may differ.

Assays:
WT and KO mice = test: 15-day oral toxicological study in WT and hepatic Cpr KO mice (organ weights, H&E, TUNEL, serum chemistry); format: in vivo, mouse
Text: Animal use protocols were approved by the Institutional Animal Care and Use Committee of the Shanghai Institute of Materia Medica (Shanghai, China), IACUC No. 2016-10-RJ-136. The Cpr knockout (KO) mice were a gift from Professor Xinxin Ding (Wadsworth Center, Albany, NY, USA). Procedures for animal breeding and genotyping were reported previously (Wu et al., [2005]). Eight to twelve weeks old male KO mice and their WT littermates on a mixed C57BL/6 and 129/Sv genetic background were used in this study. All animals were provided with a certified standard diet and tap water ad libitum during experiments. All animals were maintained under controlled temperature with a 12 h:12 h light/dark cycle. All efforts were made to minimize animal discomfort and illness, and mice were anesthetized with pentobarbital sodium (150 mg/kg, i.p.) before sample collection. No animals died during the experiment.
For toxicity experiments, mice (n = 3/group) were treated with LLDT-8 (0.5 or 1.0 mg/kg) consecutively administered by gavage for 15 days. Controls received saline. Mice were killed on the 15th-day post-administration and blood, liver, kidney, spleen, testes, and epididymis were collected. About 500 μL blood samples were collected from the heart. The main lobe of the liver, kidney, spleen, and epididymis was fixed in 10% neutral buffered formalin for histological examination, and the left testicle was fixed in modified Davidson's buffer (30% of a 37–40% solution of formaldehyde, 15% ethanol, 5% glacial acetic acid, and 50% distilled H2O) for 16 h followed by 10% neutral buffered formalin for 24 h (Latendresse et al., [2002]). Tissue sections were stained with hematoxylin and eosin (H&E). Remaining tissues were stored at −80°C for RNA and protein extraction.
Sera were assayed for Urea, creatine (CRE), alanine aminotransferase (ALT), and aspartate transaminase (AST) using an automatic HITACHI Clinical Analyzer Model 7080 (Hitachi High-Technologies Corporation, Tokyo, Japan). The intercoefficients of variability in this assay were1.1% (ALT), 0.9% (AST), 1.2% (Urea) and 1.4% (CRE). The intracoefficients of variability in this assay were 2.0% (ALT), 0.9% (AST), 1.2% (Urea) and 5.1% (CRE).
TUNEL assays were performed according to the manufacturer's protocol (In Situ Cell Death Kit, Roche Diagnostics, Indianapolis, IN). In brief, the paraffin-embedded testis tissue samples were deparaffinized three times in exchanges wash of xylene. The testis sections were then gradually rehydrated using decreasing ethanol concentrations (100, 95, 90, 80, and 70%) followed by PBS (pH = 7.4). After digestion with proteinase K (15 μg/mL, Cat. No. 539480, Lot. No. D00148754, Millipore, USA), paraffin-embedded tissue sections were labeled with a TUNEL reaction mixture, which contained terminal deoxynucleotidyl transferase incorporated with fluorescein. And 1 μg/mL DAPI (Sigma, USA) to used to reveal nuclear DNA. After staining, images were obtained with a fluorescent microscope (NIKON TS2, Japan).

[1] = tested on: GC-2spd, GC-1spg and TM4 cells; test: γ-H2AX protein level in three germ-cell lines (western blot); format: cell-based, mouse; conditions: 8h/16h treatment
Description: Mouse GC-1spg (spermatogonia-like, ATCC number: CRL-2053), TM4 (Sertoli cell-like, ATCC number: CRL-1715), and GC-2spd (spermatocyte-like, ATCC number: CRL-2196) were purchased from ATCC (Manassas, VA). Cells were grown in a 5% CO2 atmosphere at 37°C. TM4 was cultured in DMEM supplemented with 5% horse serum, 2.5% fetal bovine serum and 1x antibiotic-antimyotic (Cat. NO. 15240062, Life technologies). GC-1spg and GC-2spd were cultured in DMEM supplemented with 10% fetal bovine serum (Cat. No. F2442, Sigma, USA) and 1x antibiotic-antimyotic (Cat.NO. 15240062, Life technologies).
Cells were washed twice with ice-cold PBS (137 mM NaCl, 2.7 mM KCl, 10 mM Na2HPO4, and 1.8 mM KH2PO4, pH 7.4) and lysed in SDS sample buffer. Cell lysates, containing 20 μg of protein, were separated with SDS-PAGE (8%) and transferred to polyvinylidene difluoride membranes. […]
The effects of LLDT-8 on the expression of γ-H2AX was investigated in spermatocyte-like GC-2spd cells (A), spermatogonia-like cells (B) and sertoli-like cells (C) after 8h/16h treatment of LLDT-8 at indicated concentration. The protein level was quantified with ImageQuant software. β-actin was used as a loading control. Significant difference was determined by one-way Anova, Bars represent the mean ± SD, n = 3, * p<0.05, ** p<0.01 vs control group (0 nM).

mice = tested on: mice; design: method as in Zhou et al., 2005; conditions: p.o., ref Zhou et al., 2005; cited from earlier work
[2] = after LLDT-8 treatment, 15 days

## CC(C)[C@]12O[C@H]1[C@@H]1O[C@]13[C@]1(O[C@H]1C[C@@]1(O)C4=C(CC[C@]31C)C(=O)OC4)[C@@H]2O [LLDT-8, (5R)-5-hydroxytriptolide]
WT and KO mice; 0.5–1 mg/kg by gavage 15 days
  epididymis weight: not changed
  testes weight: dose-dependently reduced
  testis histology (H&E) in KO mice compared to WT mice: reduced germinal cell layers; also recorded: severe vacuolar degeneration; also recorded: absence of spermatids development
WT and KO mice; 0.5–1 mg/kg by gavage 15 days, WT and KO mice
  body weight: did not alter
WT and KO mice; 15 days by gavage
  hematology and spleen in KO mice: induced hematological change and enlarged spleen
WT and KO mice; 15 days by gavage, WT and KO mice
  liver injury and kidney damage: did not cause liver injury and kidney damage
WT and KO mice; [2]
  TUNEL-positive foci in testes of WT mice vs WT mice with saline: apparently increased
  number of TUNEL positive foci in testis, KO mice vs WT mice: much higher
[1]
  protein levels of γ-H2AX in three germ-cell lines: did not decrease
mice
  LD50: 9.3 mg/kg
